Counter-ions that a name gives are not always drawn.
Key:
PKB-PIF = target: T1, PKB-PIF (Homo sapiens, UniProt P31751); assay: Measurement of PKB kinase inhibitory activity (IC50), 33P-ATP phosphocellulose filter assay; type: biochemical; conditions: 0.6 nM enzyme, 30 μM ATP, 25 μM AKTide-2T substrate, 20 minutes; read-out: IC50, concentration of test compound required to inhibit 50% of the PKB activity
T1 construct: made in house
Protocol: The inhibition of protein kinase B (PKB) activity by compounds can be determined essentially as described by Andjelkovic et al. (Mol. Cell. Biol. 19, 5061-5072 (1999)) but using a fusion protein described as PKB-PIF and described in full by Yang et al (Nature Structural Biology 9, 940-944 (2002)). […] A final concentration of 0.6 nM enzyme is used in a buffer that includes 20 mM MOPS pH 7.2, 30 μM ATP/γ^33P-ATP and 25 μM substrate. Compounds are added in DMSO solution to a final DMSO concentration of 2.5%. The reaction is allowed to proceed for 20 minutes before addition of excess orthophosphoric acid to quench activity. The reaction mixture is transferred to a phosphocellulose filter plate where the peptide binds and the unused ATP is washed away. After washing, scintillant is added and the incorporated activity measured by scintillation counting.
The % inhibition of the PKB activity is calculated and plotted in order to determine the concentration of test compound required to inhibit 50% of the PKB activity (IC50).

PKA catalytic domain = target: T2, PKA catalytic domain (Homo sapiens, UniProt P17612); assay: Measurement of PKA kinase inhibitory activity (IC50), 33P-ATP filter plate assay; type: biochemical; conditions: 1 nM enzyme, 40 μM ATP, 20 minutes; read-out: IC50, concentration of test compound required to inhibit 50% of the PKA activity
T2 construct: using the PKA catalytic domain from Upstate Biotechnology (#14-440); purchased Upstate Biotechnology 14-440
Protocol: Compounds of the invention can be tested for PK inhibitory activity using the PKA catalytic domain from Upstate Biotechnology (#14-440) and the 9 residue PKA specific peptide ([…]), also from Upstate Biotechnology (#12-257), as the substrate. A final concentration of 1 nM enzyme is used in a buffer that includes 20 mM MOPS pH 7.2, 40 μM ATP/γ^33P-ATP and […] substrate. Compounds are added in dimethylsulphoxide (DMSO) solution to a final DMSO concentration of 2.5%. The reaction is allowed to proceed for 20 minutes before addition of excess orthophosphoric acid to quench activity. Unincorporated γ^33P-ATP is then separated from phosphorylated proteins on a Millipore MAPH filter plate. The plates are washed, scintillant is added and the plates are then subjected to counting on a Packard Topcount.
The % inhibition of the PKA activity is calculated and plotted in order to determine the concentration of test compound required to inhibit 50% of the PKA activity (IC50).

T1 sequence (P31751 with tags, fused parts or gaps limits assumed): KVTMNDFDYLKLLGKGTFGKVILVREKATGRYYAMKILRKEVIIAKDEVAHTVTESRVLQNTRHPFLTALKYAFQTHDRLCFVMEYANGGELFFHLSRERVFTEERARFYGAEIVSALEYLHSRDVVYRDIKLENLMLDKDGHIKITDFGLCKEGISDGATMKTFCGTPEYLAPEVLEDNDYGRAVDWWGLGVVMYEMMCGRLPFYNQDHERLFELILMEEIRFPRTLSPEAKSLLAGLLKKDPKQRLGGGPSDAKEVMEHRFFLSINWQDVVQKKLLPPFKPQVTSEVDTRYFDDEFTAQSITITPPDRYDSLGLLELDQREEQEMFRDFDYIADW

SMILES | IC50 (PKB-PIF) [nM] | IC50 (PKA catalytic domain) [nM]
NC1(C(=O)NCc2ccc(Cl)c(-c3ccccc3)c2)CCN(c2ncnc3[nH]ccc23)CC1 [Example 2, 4-Amino-1-(7H-pyrrolo[2,3-d]pyrimidin-4-yl)-piperidine-4-carboxylic acid (6-chloro-biphenyl-3-ylmethyl)-amide hydrochloride] | < 1000 | –
NCC1(c2cccc(-c3ccccc3)c2)CCN(c2ncnc3[nH]ccc23)CC1 [Example 4, C-[4-Biphenyl-3-yl-1-(7H-pyrrolo[2,3-d]pyrimidin-4-yl)piperidin-4-yl]methylamine] | < 1000 | < 10000
COc1ccc(-c2cccc(C3(CN)CCN(c4ncnc5[nH]ccc45)CC3)c2)cc1 [Example 5, C-[4-(4′-Methoxybiphenyl-3-yl)-1-(7H-pyrrolo[2,3-d]pyrimidin-4-yl)piperidin-4-yl]methylamine] | < 1000 | –
NCC1(c2ccc(OC(F)(F)F)cc2)CCN(c2ncnc3[nH]c(=O)[nH]c23)CC1 [Example 10, 6-[4-Aminomethyl-4-(4-trifluoromethoxyphenyl)piperidin-1-yl]-7,9-dihydropurin-8-one] | < 1000 | –
CC(C)(C)c1ccc(CC2(N)CCN(c3ncnc4[nH]ncc34)CC2)cc1 [Example 13, 4-(4-tert-Butyl-benzyl)-1-(1H-pyrazolo[3,4-d]pyrimidin-4-yl)-piperidin-4-ylamine] | < 1000 | –

Second part, the compound after the results:

IC50 (PKB-PIF) [nM] | IC50 (PKA catalytic domain) [nM] | SMILES
– | < 10000 | NC1(C(=O)NCc2ccc(Cl)cc2)CCN(c2ncnc3[nH]c(=O)[nH]c23)CC1 [Example 6, 4-Amino-1-(8-oxo-8,9-dihydro-7H-purin-6-yl)-piperidine-4-carboxylic acid 4-chloro-benzylamide]
< 1000 | < 10000 | NC1(C(=O)NCc2ccc(Cl)cc2F)CCN(c2ncnc3[nH]c(=O)[nH]c23)CC1 [Example 7, 4-Amino-1-(8-oxo-8,9-dihydro-7H-purin-6-yl)-piperidine-4-carboxylic acid 4-chloro-2-fluoro-benzylamide]
< 1000 | – | NC1(Cc2ccc(Cl)cc2)CCN(c2ncnc3[nH]c(=O)[nH]c23)CC1 [Example 11, 6-[4-Amino-4-(4-chlorobenzyl)piperidin-1-yl]-7,9-dihydropurin-8-one]
< 1000 | < 10000 | NC1(c2ccc(Cl)cc2)CCN(c2ncnc3[nH]c(=O)[nH]c23)CC1 [Example 12, 6-[4-Amino-4-(4-chlorophenyl)piperidin-1-yl]-7,9-dihydropurin-8-one]

From patent US20100016340A1, “PHARMACEUTICAL COMPOUNDS” (Astex Therapeutics Limited, priority 2006, published 2010)
